Test results taken from ChEMBL document CHEMBL4308846, “How Selective Are Pharmacological Inhibitors of Cell-Cycle-Regulating Cyclin-Dependent Kinases?” (J Med Chem, 2018).
Active and inactive are the calls of the source. The calls are words filed in the database; no cut-off is given here.

Key:
HCT-116 [1] = test: Induction of cell cycle arrest in human HCT116 cells assessed as accumulation at G2/M phase at 19.8 to 100 uM after 24 hrs by propidium iodide-staining based flow cytometry relative to control; assay type: functional
CDK2/Cyclin A2 = CDK2/Cyclin A2 (Homo sapiens, UniProt P24941)
[2] = target: Cyclin-dependent kinase 1/cyclin B1 (Homo sapiens, UniProt P06493); test: biochemical
[3] = target: Cyclin-dependent kinase 2/cyclin E1 (Homo sapiens, UniProt P24941); test: biochemical
[4] = target: Cyclin-dependent kinase 4/cyclin D1 (Homo sapiens, UniProt P11802); test: biochemical
[5] = target: Cyclin-dependent kinase 5/CDK5 activator 1 (Homo sapiens, UniProt Q00535); test: biochemical
CDK7/Cyclin H/MNAT1 = CDK7/Cyclin H/MNAT1 (Homo sapiens, UniProt P50613); test: biochemical
CDK9/cyclin T1 = CDK9/cyclin T1 (Homo sapiens, UniProt P50750); test: biochemical
HCT-116 [6] = test: Induction of cell cycle arrest in human HCT116 cells assessed as accumulation at G2/M phase after 24 hrs by propidium iodide-staining based flow cytometry; assay type: functional
HCT-116 [7] = test: Induction of cell cycle arrest in human HCT116 cells assessed as accumulation at G2/M phase at 2.6 to 19.8 uM after 24 hrs by propidium iodide-staining based flow cytometry relative to control; assay type: functional
Aurora kinase A = target: T1, Aurora kinase A (Homo sapiens, UniProt O14965); test: Inhibition of GST-tagged AURORA A (unknown origin) expressed in baculovirus infected Sf9 cells using MBP as substrate
T1 sequence (O14965 whole entry): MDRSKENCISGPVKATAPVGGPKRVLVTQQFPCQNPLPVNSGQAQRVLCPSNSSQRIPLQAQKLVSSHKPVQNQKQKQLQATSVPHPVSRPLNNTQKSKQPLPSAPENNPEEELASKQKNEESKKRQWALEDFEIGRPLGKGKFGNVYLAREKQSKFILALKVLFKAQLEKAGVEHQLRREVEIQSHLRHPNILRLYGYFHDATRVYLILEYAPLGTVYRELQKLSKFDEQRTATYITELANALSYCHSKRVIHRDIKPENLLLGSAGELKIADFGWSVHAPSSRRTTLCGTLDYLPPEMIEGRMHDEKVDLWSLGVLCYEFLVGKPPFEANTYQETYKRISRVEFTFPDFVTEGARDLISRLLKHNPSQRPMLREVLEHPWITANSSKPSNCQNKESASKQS

Aurora kinase B = Aurora kinase B (Homo sapiens, UniProt Q96GD4); test: biochemical
HCT-116 [8] = test: Induction of cell cycle arrest in human HCT116 cells assessed as reduction in accumulation at G1 phase at 0.15 to […] after 24 hrs by propidium iodide-staining based flow cytometry; assay type: functional
HCT-116 [9] = test: Induction of cell cycle arrest in human HCT116 cells assessed as accumulation at G2/M phase at 0.15 to […] after 24 hrs by propidium iodide-staining based flow cytometry relative to control; assay type: functional
HCT-116 [10] = test: Induction of cell cycle arrest in human HCT116 cells at 19.8 to 100 uM after 24 hrs by propidium iodide-staining based flow cytometry relative to control; assay type: functional
HCT-116 [11] = test: Induction of cell cycle arrest in human HCT116 cells assessed as reduction in accumulation at G1 phase at 8.8 to 100 uM after 24 hrs by propidium iodide-staining based flow cytometry; assay type: functional; parameters: scale not given: the % may be the effect or the level left
HCT-116 [12] = test: Induction of cell cycle arrest in CDK2 knocked out human HCT116 cells assessed as accumulation at G2/M phase at 100 to 500 nM after 24 hrs by propidium iodide-staining based flow cytometry; assay type: functional
HCT-116 [13] = test: Induction of cell cycle arrest in CDK2 knocked out human HCT116 cells assessed as accumulation at G2/M phase at 0.8 to 5.9 after 24 hrs by propidium iodide-staining based flow cytometry; assay type: functional
HCT-116 [14] = test: Induction of cell cycle arrest in CDK2 knocked out human HCT116 cells assessed as accumulation at G2/M phase at 0.5 to 3.9 after 24 hrs by propidium iodide-staining based flow cytometry; assay type: functional
[15] = target: Cyclin-dependent kinase 5/CDK5 activator 1 (Homo sapiens) (UniProt Q00535+Q15078); test: Inhibition of CDK5/p25 in human HCT116 cells assessed as induction of dephosphorylation of FAK at Ser732 residue at 10 to 50 uM after 24 hrs by Western blot analysis; assay type: cell-based
HCT-116 [16] = test: Induction of cell cycle arrest in CDK2 knocked out human HCT116 cells assessed as accumulation at G2/M phase at 13.2 to […] after 24 hrs by propidium iodide-staining based flow cytometry; assay type: functional
HCT-116 [17] = test: Induction of cell cycle arrest in CDK2 knocked out human HCT116 cells assessed as accumulation at G2/M phase at 5 to 20 uM after 24 hrs by propidium iodide-staining based flow cytometry; assay type: functional
HCT-116 [18] = test: Induction of cell cycle arrest in human HCT116 cells assessed as accumulation at G2/M phase at 5 to 20 uM after 24 hrs by propidium iodide-staining based flow cytometry; assay type: functional
HCT-116 [19] = test: Induction of cell cycle arrest in human HCT116 cells assessed as accumulation at G2/M phase at 1.7 to 19.8 uM after 24 hrs by propidium iodide-staining based flow cytometry; assay type: functional
HCT-116 [20] = test: Induction of cell cycle arrest in human HCT116 cells assessed as reduction in accumulation at G1 phase at 0.5 to 5.9 uM after 24 hrs by propidium iodide-staining based flow cytometry; assay type: functional; parameters: scale not given: the % may be the effect or the level left
[21] = target: Cyclin-dependent kinase 4 (Homo sapiens) (UniProt P11802); test: Inhibition of CDK4 (unknown origin) at 10 uM
[22] = target: Cyclin-dependent kinase 6 (Homo sapiens) (UniProt Q00534); test: Inhibition of CDK6 (unknown origin) at 10 uM
HCT-116 [23] = test: Induction of cell cycle arrest in human HCT116 cells assessed as reduction in accumulation at G1 phase at 1.7 to 19.8 uM after 24 hrs by propidium iodide-staining based flow cytometry; assay type: functional
[24] = target: Cyclin-dependent kinase 9 (Homo sapiens) (UniProt P50750); test: Inhibition of CDK9 in human HCT116 cells assessed as induction of dephosphorylation of RNA polymerase 2 S2/S5 residues at 250 to 500 nM after 24 hrs by Western blot analysis; assay type: cell-based
HCT-116 [25] = test: Induction of cell cycle arrest in human HCT116 cells assessed as accumulation at G2/M phase at 3.9 to 19.8 uM after 24 hrs by propidium iodide-staining based flow cytometry relative to control; assay type: functional
HCT-116 [26] = test: Induction of cell cycle arrest in human HCT116 cells assessed as reduction in accumulation at G1 phase 19.8 to 100 uM after 24 hrs by propidium iodide-staining based flow cytometry; assay type: functional

Cyclin-dependent kinase 4/cyclin D1, sequence (P11802 whole entry): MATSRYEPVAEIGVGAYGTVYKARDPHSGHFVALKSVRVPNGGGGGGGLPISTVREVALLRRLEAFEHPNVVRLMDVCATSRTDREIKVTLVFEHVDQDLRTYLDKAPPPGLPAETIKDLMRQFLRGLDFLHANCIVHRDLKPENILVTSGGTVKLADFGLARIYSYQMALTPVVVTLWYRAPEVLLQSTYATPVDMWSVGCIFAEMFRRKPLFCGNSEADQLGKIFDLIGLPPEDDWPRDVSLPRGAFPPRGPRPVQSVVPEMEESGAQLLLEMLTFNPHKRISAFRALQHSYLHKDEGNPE
Cyclin-dependent kinase 4/cyclin D1, sequence (P24385 whole entry, further chain): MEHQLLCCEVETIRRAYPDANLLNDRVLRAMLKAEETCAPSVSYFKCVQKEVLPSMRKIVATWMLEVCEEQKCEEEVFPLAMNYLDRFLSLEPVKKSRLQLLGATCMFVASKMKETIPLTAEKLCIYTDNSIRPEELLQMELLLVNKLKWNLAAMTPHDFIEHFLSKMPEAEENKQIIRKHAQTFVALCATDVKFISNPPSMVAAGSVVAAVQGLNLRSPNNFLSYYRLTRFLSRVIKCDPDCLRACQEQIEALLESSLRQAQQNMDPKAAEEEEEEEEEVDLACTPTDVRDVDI
CDK9/cyclin T1, sequence (O60563 whole entry): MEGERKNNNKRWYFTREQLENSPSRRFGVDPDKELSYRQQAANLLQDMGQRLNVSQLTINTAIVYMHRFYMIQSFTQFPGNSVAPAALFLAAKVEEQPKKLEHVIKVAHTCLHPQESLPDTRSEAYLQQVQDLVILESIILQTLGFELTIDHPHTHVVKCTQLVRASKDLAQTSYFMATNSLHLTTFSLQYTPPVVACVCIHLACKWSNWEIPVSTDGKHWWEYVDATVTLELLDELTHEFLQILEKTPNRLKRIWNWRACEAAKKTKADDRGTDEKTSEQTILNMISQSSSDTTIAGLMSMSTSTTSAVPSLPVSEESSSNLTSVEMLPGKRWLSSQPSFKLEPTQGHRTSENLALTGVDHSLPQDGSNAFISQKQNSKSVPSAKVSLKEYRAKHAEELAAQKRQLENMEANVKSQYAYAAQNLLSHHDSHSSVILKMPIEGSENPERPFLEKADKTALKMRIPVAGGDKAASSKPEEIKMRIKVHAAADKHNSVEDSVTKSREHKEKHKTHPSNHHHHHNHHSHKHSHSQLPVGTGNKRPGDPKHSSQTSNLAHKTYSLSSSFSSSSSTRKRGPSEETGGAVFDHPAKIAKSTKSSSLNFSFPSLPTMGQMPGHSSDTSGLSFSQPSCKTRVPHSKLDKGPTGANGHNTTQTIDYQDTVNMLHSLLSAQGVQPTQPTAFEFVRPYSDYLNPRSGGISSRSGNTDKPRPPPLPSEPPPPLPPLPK
CDK9/cyclin T1, sequence (P50750 whole entry): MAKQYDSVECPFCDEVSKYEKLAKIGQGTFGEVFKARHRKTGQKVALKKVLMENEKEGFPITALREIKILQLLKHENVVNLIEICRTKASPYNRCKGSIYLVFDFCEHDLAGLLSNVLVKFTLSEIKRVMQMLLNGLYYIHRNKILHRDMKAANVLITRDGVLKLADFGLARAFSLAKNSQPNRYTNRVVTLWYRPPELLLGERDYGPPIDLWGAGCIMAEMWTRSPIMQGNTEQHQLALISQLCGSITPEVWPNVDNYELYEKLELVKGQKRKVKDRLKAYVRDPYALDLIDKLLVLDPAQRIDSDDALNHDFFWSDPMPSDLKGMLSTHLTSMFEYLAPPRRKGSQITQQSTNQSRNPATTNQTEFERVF
CDK7/Cyclin H/MNAT1, sequence (P51946 whole entry): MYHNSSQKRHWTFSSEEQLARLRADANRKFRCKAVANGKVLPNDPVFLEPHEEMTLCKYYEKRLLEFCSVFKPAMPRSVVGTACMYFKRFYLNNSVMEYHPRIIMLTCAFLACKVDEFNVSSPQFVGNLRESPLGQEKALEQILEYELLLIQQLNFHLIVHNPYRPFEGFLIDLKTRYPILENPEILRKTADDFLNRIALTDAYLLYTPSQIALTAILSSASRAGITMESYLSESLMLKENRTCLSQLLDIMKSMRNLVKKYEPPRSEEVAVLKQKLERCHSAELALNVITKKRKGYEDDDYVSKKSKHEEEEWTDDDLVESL
CDK7/Cyclin H/MNAT1, sequence (P50613 whole entry): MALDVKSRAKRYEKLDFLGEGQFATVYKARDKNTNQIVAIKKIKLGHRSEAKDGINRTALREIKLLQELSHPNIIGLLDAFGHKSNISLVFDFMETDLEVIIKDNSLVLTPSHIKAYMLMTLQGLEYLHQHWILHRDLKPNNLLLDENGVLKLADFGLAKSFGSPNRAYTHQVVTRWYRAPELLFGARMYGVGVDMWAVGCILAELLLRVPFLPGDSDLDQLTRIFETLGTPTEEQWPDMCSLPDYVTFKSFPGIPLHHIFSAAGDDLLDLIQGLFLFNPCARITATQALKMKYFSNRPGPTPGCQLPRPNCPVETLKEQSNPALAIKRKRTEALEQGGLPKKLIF
CDK7/Cyclin H/MNAT1, sequence (P51948 whole entry, further chain): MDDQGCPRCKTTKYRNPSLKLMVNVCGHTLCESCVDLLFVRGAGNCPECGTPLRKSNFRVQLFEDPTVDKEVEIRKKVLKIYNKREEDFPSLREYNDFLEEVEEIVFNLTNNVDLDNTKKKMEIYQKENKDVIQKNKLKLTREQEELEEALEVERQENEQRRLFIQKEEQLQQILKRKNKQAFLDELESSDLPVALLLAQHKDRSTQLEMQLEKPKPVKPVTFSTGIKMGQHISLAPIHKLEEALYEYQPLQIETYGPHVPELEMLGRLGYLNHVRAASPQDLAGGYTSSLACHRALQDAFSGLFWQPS
Cyclin-dependent kinase 1/cyclin B1, sequence (P06493 whole entry): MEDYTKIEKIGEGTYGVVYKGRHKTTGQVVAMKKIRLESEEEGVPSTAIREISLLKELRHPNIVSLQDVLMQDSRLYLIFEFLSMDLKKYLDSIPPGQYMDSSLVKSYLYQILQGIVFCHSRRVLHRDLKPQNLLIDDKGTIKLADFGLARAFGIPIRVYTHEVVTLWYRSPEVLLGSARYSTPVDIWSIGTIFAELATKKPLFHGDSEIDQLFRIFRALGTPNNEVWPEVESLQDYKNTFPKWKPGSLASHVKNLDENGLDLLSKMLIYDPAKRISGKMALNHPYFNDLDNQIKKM
Cyclin-dependent kinase 1/cyclin B1, sequence (P14635 whole entry, further chain): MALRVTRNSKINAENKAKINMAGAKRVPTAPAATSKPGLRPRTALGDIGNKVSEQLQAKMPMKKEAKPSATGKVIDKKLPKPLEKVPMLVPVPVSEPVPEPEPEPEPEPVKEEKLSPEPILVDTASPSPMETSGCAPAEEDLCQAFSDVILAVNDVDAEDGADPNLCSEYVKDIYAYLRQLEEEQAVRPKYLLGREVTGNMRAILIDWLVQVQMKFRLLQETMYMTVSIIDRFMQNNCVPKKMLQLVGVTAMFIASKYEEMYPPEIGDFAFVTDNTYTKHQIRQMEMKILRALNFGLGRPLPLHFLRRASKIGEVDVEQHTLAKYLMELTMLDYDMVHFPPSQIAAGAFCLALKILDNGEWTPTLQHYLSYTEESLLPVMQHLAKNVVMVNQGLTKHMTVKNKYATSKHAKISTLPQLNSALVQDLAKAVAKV
Cyclin-dependent kinase 5/CDK5 activator 1, sequence (Q00535 whole entry): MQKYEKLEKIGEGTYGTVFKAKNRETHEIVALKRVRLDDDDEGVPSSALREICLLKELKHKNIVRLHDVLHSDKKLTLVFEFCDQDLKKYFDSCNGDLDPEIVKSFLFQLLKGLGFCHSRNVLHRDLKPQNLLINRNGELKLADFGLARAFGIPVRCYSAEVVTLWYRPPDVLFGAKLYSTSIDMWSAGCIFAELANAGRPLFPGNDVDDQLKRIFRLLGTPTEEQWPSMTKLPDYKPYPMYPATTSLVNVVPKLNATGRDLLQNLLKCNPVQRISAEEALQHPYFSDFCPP
Cyclin-dependent kinase 5/CDK5 activator 1, sequence (Q15078 whole entry, further chain): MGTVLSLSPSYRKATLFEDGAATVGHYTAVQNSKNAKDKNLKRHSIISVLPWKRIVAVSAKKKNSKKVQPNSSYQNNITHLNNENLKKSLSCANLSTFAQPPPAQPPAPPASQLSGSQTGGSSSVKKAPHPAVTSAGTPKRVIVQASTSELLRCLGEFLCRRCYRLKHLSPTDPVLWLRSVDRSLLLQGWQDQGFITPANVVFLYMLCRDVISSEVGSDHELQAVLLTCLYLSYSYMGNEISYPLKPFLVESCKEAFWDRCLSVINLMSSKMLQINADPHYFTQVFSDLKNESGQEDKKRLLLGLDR
Cyclin-dependent kinase 4 (Homo sapiens), sequence (P11802 whole entry): as the sequence (P11802 whole entry) above
Aurora kinase B, sequence (Q96GD4 whole entry): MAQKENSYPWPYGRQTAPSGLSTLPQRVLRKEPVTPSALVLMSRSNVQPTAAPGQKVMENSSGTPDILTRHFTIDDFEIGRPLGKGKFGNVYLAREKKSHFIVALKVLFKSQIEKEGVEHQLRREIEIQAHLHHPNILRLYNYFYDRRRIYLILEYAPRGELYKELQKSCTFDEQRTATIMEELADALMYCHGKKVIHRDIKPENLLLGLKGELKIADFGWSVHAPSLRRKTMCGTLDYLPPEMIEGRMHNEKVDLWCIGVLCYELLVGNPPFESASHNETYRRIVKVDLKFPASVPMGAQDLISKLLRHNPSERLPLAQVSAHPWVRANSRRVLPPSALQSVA
Cyclin-dependent kinase 6 (Homo sapiens), sequence (Q00534 whole entry): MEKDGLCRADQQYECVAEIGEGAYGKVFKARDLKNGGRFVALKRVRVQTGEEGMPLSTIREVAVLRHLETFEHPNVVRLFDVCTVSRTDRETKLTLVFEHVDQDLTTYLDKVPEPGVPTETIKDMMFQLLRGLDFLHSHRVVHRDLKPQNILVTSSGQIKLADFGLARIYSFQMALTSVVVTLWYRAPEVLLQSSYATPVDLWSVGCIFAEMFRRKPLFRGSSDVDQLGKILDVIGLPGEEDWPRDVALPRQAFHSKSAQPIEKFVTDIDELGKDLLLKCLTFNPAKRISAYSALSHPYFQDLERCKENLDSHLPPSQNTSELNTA
Cyclin-dependent kinase 9 (Homo sapiens), sequence (P50750 whole entry): as the sequence (P50750 whole entry) above

Structure (SMILES)	IC50 (CDK2/Cyclin A2) [nM]	IC50 [2] [nM]	IC50 [3] [nM]	IC50 [4] [µM]	IC50 [5] [nM]	IC50 (CDK7/Cyclin H/MNAT1) [µM]	IC50 (CDK9/cyclin T1) [nM]	other results
CC(=O)c1cnc2oc3ccc(O)cc3c2c1-c1ccccc1	> 20000	> 20000	> 20000	> 20	17500	> 20	> 20000	Activity (HCT-116 [1]): inactive
CNC(=O)c1nn(C)c2c1C(C)(C)Cc1cnc(Nc3ccc(N4CCN(C)CC4)cc3)nc1-2 [MILCICLIB]	109	1200	590					Activity (HCT-116 [6]): 30 - 60%
O=C1Nc2ccccc2/C1=C\c1c(Cl)[nH]c2ccccc12	13200	6700	9400	> 20	5800	16	> 20000	Activity (HCT-116 [7]): >=60%; IC50 (Aurora kinase A): > 20 µM; IC50 (Aurora kinase B): 15.6 µM
CN1CCN(c2ccc(Nc3ncc4cc(C#N)c(=O)n(C5CCCC5)c4n3)cc2)CC1 [NARAZACICLIB]	55	600	377	0.018	272	6	117	Activity (HCT-116 [8]): Active; Activity (HCT-116 [9]): >=60%
Nc1n[nH]c2nc3ccccc3nc12 [QUINOXALINE1]	10	9700	5600	> 20	13700	> 20	14100	Activity (HCT-116 [10]): inactive
CC(C)c1cnc(NC(=O)Cc2ccccc2)s1	353	1700	195	20.4	458	0.637	3400	Activity (HCT-116 [11]): <=30%; Activity (HCT-116 [12]): Active; Activity (HCT-116 [13]): Active; Activity (HCT-116 [14]): Active; inhibition [15]: Active; Activity (HCT-116 [16]): Active
O=C1Nc2ccc3ncsc3c2/C1=C/Nc1ccc(S(=O)(=O)Nc2ccccn2)cc1		49		0.139	7	0.317		Activity (HCT-116 [6]): 30 - 60%
COc1ccc2c(c1)/C(=C/c1cnc[nH]1)C(=O)N2 [SU-9516]								Activity (HCT-116 [6]): 30 - 60%; Activity (HCT-116 [17]): Active; Activity (HCT-116 [18]): Active
O=C1Nc2cc(Br)ccc2/C1=C1/Nc2ccccc2/C1=N\O [6BIO]						3.5	450	Activity (HCT-116 [19]): <=30%
CCCOc1cnc(CN/C=C2\C(=O)NC(=O)c3ccc(I)cc32)cc1O	71	290	501	0.038	1200	> 20	1000	Activity (HCT-116 [20]): <=30%; inhibition [21]: Active; inhibition [22]: Active
COc1ccc(CNc2nc(N(CCO)CCO)nc3c2ncn3C(C)C)cc1		3700		> 20	419	9.2	2300	Activity (HCT-116 [6]): <=30%
CCNc1cc(N[C@H]2CC[C@H](O)CC2)nc(Nc2ccc3c(ccn3Cc3ccccc3)c2)n1					> 10000	> 10	> 10000	Activity (HCT-116 [23]): Active; Activity (HCT-116 [19]): 30 - 60%
Nc1cc(Nc2ccc(S(N)(=O)=O)cc2)ncn1	946	5300	1900	> 20	4400	> 20	> 20000	Activity [24]: inactive
CN(C)C(=O)c1cc2cnc(Nc3ccc(N4CCNCC4)cn3)nc2n1C1CCCC1 [RIBOCICLIB]					> 20000	> 20		
CCn1cnc2c(Nc3cccc(Cl)c3)nc(N[C@@H]3CCCC[C@@H]3N)nc21	46	147	26	3	26	0.279	1400	Activity (HCT-116 [25]): <=30%
CCOC(=O)c1cnc2oc3ccc(O)cc3c2c1-c1ccccc1	7100	> 20000	14300	> 20	> 20000	> 20	> 20000	Activity (HCT-116 [1]): inactive
COc1ccc(OC)c2c(=S)c3ccccc3[nH]c12	> 20000	> 20000	> 20000	> 20	> 20000	> 20	> 20000	Activity (HCT-116 [26]): Active
